Assay results: patent US7001921B1, “Cell adhesion inhibitors” (Biogen Idec MA Inc., priority 1995, dated 2006)

Target: T1, VLA4 (Homo sapiens, UniProt P05556+P13612)
T1 construct: endogenous in cells; host or cells: Ramos cells
Test: Inhibition of VLA4-dependent adhesion to BSA-CS1 (labelled Ramos cells)
Type: cell-based
Settings: binding of BCECF-AM labelled Ramos cells to CS1 peptide-coated wells, 2 mM MnCl2, 30 minutes at room temperature; IC50 range
Excerpt: For example, the cell adhesion inhibitory activity of these compounds may be measured by determining the concentration of inhibitor required to block the binding of VLA-4-expressing cells to fibronectin- or CS1-coated plates. In this assay microtiter wells are coated with either fibronectin (containing the CS-1 sequence) or CS-1. If CS-1 is used, it must be conjugated to a carrier protein, such as bovine serum albumin, in order to bind to the wells. Once the wells are coated, varying concentrations of the test compound are then added together with appropriately labelled, VLA-4-expressing cells. Alternatively, the test compound may be added first and allowed to incubate with the coated wells prior to the addition of the cells. The cells are allowed to incubate in the wells for at least 30 minutes. Following incubation, the wells are emptied and washed. Inhibition of binding is measured by quantitating the fluorescence or radioactivity bound to the plate for each of the various concentrations of test compound, as well as for controls containing no test compound.
VLA-4-expressing cells that may be utilized in this assay include Ramos cells, Jurkat cells, A375 melanoma cells, as well as human peripheral blood lymophocytes (PBLs). The cells used in this assay may be fluorescently or radioactively labelled.
This assay was used to assess the potency of VLA4-directed inhibitory compounds of this invention.
We dissolved BSA-SMCC (Pierce Chemical, Rockford, Ill.; Catalog # 77115) in H2O at a concentration of 10 mg/mL. [SEQ ID NO:4]: […](“Cys-Tyr-CS1 peptide”), which we synthesized by conventional solid phase chemistry and purified by HPLC, was dissolved in 10 mM HEPES pH 5, 50 mM NaCl and 0.1 mM EDTA also at a concentration of 10 mg/mL. We then mixed 500 μL of BSA-SMCC, 250 μL of Cys-Tyr-CS1 peptide and 75 μL of […] and allowed the conjugation reaction to proceed for 30 minutes. We stopped the reaction by adding 1 μL of beta-mercaptoethanol. Samples were analyzed for cross-linking by SDS-PAGE. This reaction produced multiple molecules of the Cys-Tyr-CS1 peptide conjugate to each BSA molecule.
We coated the wells of a Linbro titertek polystyrene 96-well flat bottom plate (Flow Laboratories, Maclean, Va.; catalog #76-231-05) with 100 μL of the above-described BSA-CS1 solution diluted to 1 μg/mL in 0.05 M NaHCO3 (15 mM NaHCO3, 35 mM Na2CO3) pH 9.2. Some wells were not coated with CS1 in order to assess non-specific cell binding (NSB). The plate was then incubated overnight at 4° C.
Following this incubation, the contents of the wells were removed by inverting and blotting the plate. All of the wells were then blocked with 100 μL of 1% BSA in PBS, 0.02% NaN3, for a minimum of one hour at room temperature.
3. Preparation of Fluorescently Labelled Ramos Cells Ramos cells are grown, maintained and labelled in RPMI 1640 culture medium containing 1% BSA. Just prior to running the assay, we added 2′,7′-bis-(2-carboxyethyl)5 (and -6) carboxyfluorescein acetoxymethyl ester (“BCECF-AM”; Molecular Probes Inc., Eugene, Oreg.; catalog #B-1150) to a final concentration of 2 μM to a culture of Ramos cells (4×10^6 cells/mL). We incubated the cells for 20 minutes at 37° C.
Following labelling, the cells were washed twice in assay buffer (24 mM TRIS, 137 mM NaCl, 2.7 mM KCl, pH 7.4, containing 0.1% BSA and 2 mM glucose) to remove any cations originating from the culture medium. The cells were then resuspended in assay buffer to 4×10^6 cells/mL and 2 mM MnCl2 was added to upregulate VLA4 on the surface of the cells.
Immediately prior to running the assay, we removed the BSA blocking solution from the 96-well plates and washed the wells with 100 μL of assay buffer. We then added to each well 25 μL of test cell adhesion inhibitory compound at 2× the final concentration and 25 μL of the labelled Ramos cells. Final concentrations were selected across a range of anticipated IC50s, usually between 0.01 nM–10 μM. […]

T1 sequence (P13612 34-1032): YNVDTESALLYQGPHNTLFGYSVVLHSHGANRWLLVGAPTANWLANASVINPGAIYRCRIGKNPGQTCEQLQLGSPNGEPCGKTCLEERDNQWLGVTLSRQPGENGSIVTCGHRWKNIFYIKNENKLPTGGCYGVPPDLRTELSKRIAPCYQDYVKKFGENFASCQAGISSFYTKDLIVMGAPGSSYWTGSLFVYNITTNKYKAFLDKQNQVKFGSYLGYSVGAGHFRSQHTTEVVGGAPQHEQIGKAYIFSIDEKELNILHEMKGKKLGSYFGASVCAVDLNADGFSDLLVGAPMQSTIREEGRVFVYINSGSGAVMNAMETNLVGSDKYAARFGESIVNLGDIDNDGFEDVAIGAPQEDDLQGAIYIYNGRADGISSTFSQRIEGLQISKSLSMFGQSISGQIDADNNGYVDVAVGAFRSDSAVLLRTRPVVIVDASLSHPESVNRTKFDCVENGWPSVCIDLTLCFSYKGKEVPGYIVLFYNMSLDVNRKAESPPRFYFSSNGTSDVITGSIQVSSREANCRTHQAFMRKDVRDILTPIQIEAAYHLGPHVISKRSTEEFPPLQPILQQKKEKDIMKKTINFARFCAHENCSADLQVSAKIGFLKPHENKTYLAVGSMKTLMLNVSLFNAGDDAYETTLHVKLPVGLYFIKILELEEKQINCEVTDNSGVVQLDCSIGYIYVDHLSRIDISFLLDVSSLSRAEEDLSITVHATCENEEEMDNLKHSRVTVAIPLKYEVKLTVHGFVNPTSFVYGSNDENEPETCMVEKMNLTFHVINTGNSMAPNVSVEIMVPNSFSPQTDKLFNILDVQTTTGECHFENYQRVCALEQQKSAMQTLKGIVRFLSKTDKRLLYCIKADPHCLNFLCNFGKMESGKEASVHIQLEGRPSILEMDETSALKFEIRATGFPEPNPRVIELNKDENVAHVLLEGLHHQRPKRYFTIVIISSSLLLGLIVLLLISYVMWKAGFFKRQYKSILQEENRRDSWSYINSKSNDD
T1 sequence (P05556 21-798): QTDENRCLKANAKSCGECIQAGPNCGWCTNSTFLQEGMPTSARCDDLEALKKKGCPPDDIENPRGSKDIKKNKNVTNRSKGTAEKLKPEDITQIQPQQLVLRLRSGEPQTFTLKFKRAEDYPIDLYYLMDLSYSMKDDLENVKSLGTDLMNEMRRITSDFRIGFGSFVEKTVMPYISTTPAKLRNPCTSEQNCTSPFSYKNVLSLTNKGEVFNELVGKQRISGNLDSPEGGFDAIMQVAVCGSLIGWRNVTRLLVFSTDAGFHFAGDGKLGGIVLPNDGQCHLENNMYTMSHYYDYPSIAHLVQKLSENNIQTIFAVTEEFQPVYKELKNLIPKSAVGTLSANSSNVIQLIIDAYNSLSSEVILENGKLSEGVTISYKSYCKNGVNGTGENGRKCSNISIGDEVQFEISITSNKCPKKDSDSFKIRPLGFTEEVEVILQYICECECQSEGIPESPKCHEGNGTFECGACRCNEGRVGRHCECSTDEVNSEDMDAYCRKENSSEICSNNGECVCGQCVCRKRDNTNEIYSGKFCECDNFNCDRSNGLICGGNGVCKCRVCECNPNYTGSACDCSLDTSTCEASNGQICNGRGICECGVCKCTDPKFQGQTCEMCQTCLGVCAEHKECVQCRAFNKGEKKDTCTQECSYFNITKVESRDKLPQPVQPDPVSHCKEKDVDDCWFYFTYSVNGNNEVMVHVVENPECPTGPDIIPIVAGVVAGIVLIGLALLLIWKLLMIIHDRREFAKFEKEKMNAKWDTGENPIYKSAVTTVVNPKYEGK

Row | IC50 [µM] | SMILES
1 | > 10 | O=C(O)CC(NC(=O)C(COCc1ccccc1)NC(=O)Cc1ccccc1)c1ccccc1 (centres unmarked) [compound 1126]
2 | 0.05 to 10 | O=C(O)CC(NC(=O)C(CSCc1ccccc1)NC(=O)Cc1ccccc1)c1ccccc1 (centres unmarked) [compound 1127]
3 | 0.05 to 10 | O=C(O)CC(NC(=O)C(Cc1ccccc1)NC(=O)Cc1ccc(NC(=O)Nc2ccccc2)cc1)c1ccc2c(c1)OCO2 (centres unmarked) [compound 1129]
4 | 0.05 to 10 | O=C(O)CC(NC(=O)C(Cc1ccccc1)NC(=O)Cc1ccc(NC(=O)Nc2ccccc2)cc1)c1ccccc1 (centres unmarked) [compound 1130]
5 | 0.05 to 10 | CCC(C)C(NC(=O)Cc1ccc(NC(=O)Nc2ccccc2)cc1)C(=O)NC(CC(=O)O)c1ccccc1 (centres unmarked) [compound 1131]
6 | 0.05 to 10 | O=C(O)CC(NC(=O)C(CCCCNC(=O)OCc1ccccc1)NC(=O)Cc1ccc(NC(=O)Nc2ccccc2)cc1)c1ccccc1 (centres unmarked) [compound 1132]
7 | 0.05 to 10 | CC(C)(C)OC(=O)NCC(NC(=O)Cc1ccc(NC(=O)Nc2ccccc2)cc1)C(=O)NC(CC(=O)O)c1ccccc1 (centres unmarked) [compound 1134]
8 | < 0.05 | CSCCC(NC(=O)Cc1ccc(NC(=O)Nc2ccccc2)cc1)C(=O)NC(CC(=O)O)c1ccccc1 (centres unmarked) [compound 1135]
9 | 0.05 to 10 | NCC(NC(=O)Cc1ccc(NC(=O)Nc2ccccc2)cc1)C(=O)NC(CC(=O)O)c1ccccc1 (centres unmarked) [compound 1138]
10 | 0.05 to 10 | NCCCCC(NC(=O)Cc1ccc(NC(=O)Nc2ccccc2)cc1)C(=O)NC(CC(=O)O)c1ccccc1 (centres unmarked) [compound 1139]

More lines, now with the values behind:

Row | SMILES | IC50 [µM]
11 | CC(C)CC(NC(=O)Cc1ccc(NC(=O)Nc2ccccc2)cc1)C(=O)NC(CC(=O)O)c1ccc2c(c1)CCC2 (centres unmarked) [compound 1128] | 0.05 to 10
12 | CCC(C)C(NC(=O)Cc1ccc(NC(=O)Nc2ccccc2)cc1)C(=O)NC(CC(=O)O)c1ccc2c(c1)OCO2 (centres unmarked) [compound 1133] | 0.05 to 10
13 | CC(C)CC(NC(=O)Cc1ccc(O)cc1)C(=O)NC(CC(=O)O)Cc1ccccc1 (centres unmarked) [compound 1143] | > 10
14 | CC(C)CC(NC(=O)Cc1ccc(O)cc1)C(=O)NC(CC(=O)O)c1ccccc1 (centres unmarked) [compound 1144] | 0.05 to 10
15 | CC(C)CC(NC(=O)Cc1ccc(NC(=O)OC(C)(C)C)cc1)C(=O)NC(CC(=O)O)c1ccccc1 (centres unmarked) [compound 1145] | 0.05 to 10
16 | COc1cccc(C(CC(=O)O)NC(=O)C(CC(C)C)NC(=O)Cc2ccc(O)cc2)c1 (centres unmarked) [compound 1146] | 0.05 to 10
17 | CC(=O)Nc1ccc(CC(=O)NC(CC(C)C)C(=O)NC(CC(=O)O)c2ccccc2)cc1 (centres unmarked) [compound 1147] | 0.05 to 10
18 | CC(C)CC(NC(=O)Cc1ccc(O)cc1)C(=O)NC(CC(=O)O)c1cccnc1 (centres unmarked) [compound 1148] | > 10
19 | CC(C)CC(NC(=O)c1ccc2ccccc2n1)C(=O)NC(CC(=O)O)c1ccccc1 (centres unmarked) [compound 1149] | > 10
20 | CC(C)CC(NC(=O)CCc1ccccc1)C(=O)NC(CC(=O)O)c1ccccc1 (centres unmarked) [compound 1150] | > 10
21 | CC(C)CC(NC(=O)OCc1ccccc1)C(=O)NC(CC(=O)O)c1cccnc1 (centres unmarked) [compound 1153] | > 10
22 | CC(C)CC(NC(=O)Cc1ccccc1)C(=O)NC(CC(=O)O)Cc1ccccc1 (centres unmarked) [compound 1157] | > 10
23 | CC(C)CC(NC(=O)Cc1ccccc1)C(=O)NC(CC(=O)O)c1ccc2c(c1)OCO2 (centres unmarked) [compound 1158] | 0.05 to 10
24 | COc1ccccc1C(CC(=O)O)NC(=O)C(CC(C)C)NC(=O)Cc1ccccc1 (centres unmarked) [compound 1159] | > 10
25 | CSCCC(NC(=O)Cc1ccc(NC(=O)Nc2ccccc2)cc1)C(=O)NC(CC(=O)O)c1ccc2c(c1)OCO2 (centres unmarked) [compound 1163] | 0.05 to 10
26 | CSCCC(NC(=O)Cc1ccccc1)C(=O)NC(CC(=O)O)c1ccc2c(c1)OCO2 (centres unmarked) [compound 1164] | 0.05 to 10
27 | Cc1cccc(NC(=O)Nc2ccc(CC(=O)NC(CC(C)C)C(=O)NC(CC(=O)O)c3ccc4c(c3)OCO4)cc2)c1 (centres unmarked) [compound 1168] | 0.05 to 10
28 | CC(C)CC(NC(=O)Cc1ccc(NC(=O)NCc2ccccc2)cc1)C(=O)NC(CC(=O)O)c1ccc2c(c1)OCO2 (centres unmarked) [compound 1169] | 0.05 to 10
29 | O=C(O)CC(NC(=O)C(CC(=O)N1CCOCC1)NC(=O)Cc1ccc(NC(=O)Nc2ccccc2)cc1)c1ccc2c(c1)OCO2 (centres unmarked) [compound 1170] | 0.05 to 10
